From patent US20110030077A1, “METHODS OF MODULATING THE ORGANIC SOLUTE AND STEROID TRANSPORTER (OSTalpha-OSTbeta) ACTIVITY AND TREATING ASSOCIATED CONDITIONS” (UNIVERSITY OF ROCHESTER, priority 2009, published 2011)
Each block holds one molecule with its values, some of them ahead of it.

Experiments:
[1] = intraileal injection
Method: [^3H]Estrone 3-sulfate, 0.005 μmol/100 μl, was injected directly into the ileal lumen of Ostα^+/+ and Ostα^−/− male (FIG. 18C) and female (FIG. 18D) mice. Tissues were collected for analysis of radioactivity after 30 min.
Mice that had been fed ad libitum were anesthetized by intraperitoneal administration of pentobarbital sodium (50 mg/kg) and additional anesthetic was administered as required for the duration of the experiment. […] At the end of the experiments, 150-300 μl of blood was collected from the abdominal aorta in a tared 1 ml syringe containing 50 μl of heparin (1000 U/ml). The small intestine was removed and segmented into 3 parts, where the first third after the stomach comprised the duodenum, the middle third the jejunum, and the section before the ileo-ceco-colic junction comprised the ileum. Colon, liver, gallbladder, kidney and the urinary bladder were also removed and weighed. The contents of the small intestine, colon, gallbladder and urinary bladder were included in the analysis. For the liver, approximately 0.2-0.4 g of tissue was taken for analysis of radioisotope content. Tissue and blood samples were placed in tared 20-ml glass vials, and Solvable (Perkin-Elmer, Life and Analytical Sciences, Boston, Mass.) was added to each vial (1.0 ml/0.1 g tissue or 2.0 ml/1.0 ml blood), which was then heated to 60° C. for 2 to 3 h. The vials were allowed to cool to room temperature, and 0.1 ml of 0.1 M EDTA/1.0 ml of Solvable was added to each vial of blood. H2O2 (30%) was then added in 0.1-ml aliquots (0.3 ml/1.0 ml Solvable for blood or 0.1 ml/1.0 ml Solvable for tissues). After standing at room temperature for 15 to 30 min, the vials were capped tightly and heated to 60° C. for 1 h and allowed to cool back to room temperature. After the addition of scintillation fluid (4 ml of Opti-Fluor to 200 μl of each sample) (Perkin-Elmer, Life and Analytical Sciences, Boston, Mass.), the samples were allowed to stand for at least 2 h at room temperature before counting. Samples were counted in a Beckman LS 6500 scintillation counter (Beckman Coulter, Fullerton, Calif.). […]

[2] = target: Ostα-YN (mouse); assay: cell-based or functional assay
Ostα-YN (mouse), sequence (Q8R000 whole entry): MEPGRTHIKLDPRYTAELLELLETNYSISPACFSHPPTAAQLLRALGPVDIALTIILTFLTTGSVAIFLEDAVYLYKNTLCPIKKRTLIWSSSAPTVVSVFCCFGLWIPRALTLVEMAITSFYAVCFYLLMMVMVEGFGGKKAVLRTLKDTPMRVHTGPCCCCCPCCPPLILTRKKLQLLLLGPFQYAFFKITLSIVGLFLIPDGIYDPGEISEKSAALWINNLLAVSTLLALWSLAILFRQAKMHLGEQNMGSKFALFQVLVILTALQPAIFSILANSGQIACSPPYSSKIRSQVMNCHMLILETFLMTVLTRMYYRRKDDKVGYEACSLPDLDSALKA

Molecule: C[C@H](CCC(=O)NCCS(=O)(=O)O)[C@H]1CC[C@H]2[C@@H]3[C@H](O)C[C@@H]4C[C@H](O)CC[C@]4(C)[C@H]3C[C@H](O)[C@]12C [taurocholate, taurocholic acid]
absorption from the ileum ([1]; wild type mice, 15 min): > 90%

[3H]taurocholate transport in cells co-transfected with Ostα-YN and Ostβ-YC [2]: 30%
Molecule: Ostβ29-53-YC (peptide)

fraction absorbed from the ileum ([1]; Ostα−/− mice, 30 min): 20-30% | removed from the ileum ([1]; wild type mice, 30 min): 60-70%
Molecule: estrone 3-sulfate [estrone sulfate]
